# Test results reported in patent US7923429B2, “Treatment for CD5+ B cell lymphoma” (3M Innovative Properties Company, priority 2003, dated 2011).
# Tests used:
# [1] = test system: CLL cells; experiment: Elimination of CLL cells by autologous T cells in co-culture; type: cell-based, human; settings: alone or in combination with IL-2 and/or bryostatin; 1:1 CLL:T cells, 5 days
# Description: CLL cells and T cells were isolated from a CLL patient, suspended at concentrations of 10^6 cells/mL and mixed in a 1:1 ratio. The cell mixtures were cultured alone, or in the presence of IL-2, IL-2 and IRM1, bryostatin, bryostatin and IL-2, bryostatin and IRM1, or bryostatin, IL-2, and IRM1. In FIG. 5A, after 5 days, the percentages of CD5^+ CD19^+ tumor cells (indicated by the numbers in the right upper quadrants of the dot-plots) and CD5^+ CD19^− T cells were determined by flow cytometry. In FIG. 5B, these percentages and the total numbers of viable cells (determined by manual counting in a hemocytometer) were used to calculate the remaining absolute numbers of CLL cells in the cultures.
# [2] = test system: CLL cells; experiment: Costimulatory molecule expression by activated CLL cells (flow cytometry); type: cell-based, human
# Description: Blood samples: Heparinized blood (30-40 mL) was collected from consenting CLL patients (diagnosed by a persistent elevation of CD19^+CD5^+ IgM^lo lymphocytes (Rozman and Montserrat, New Engl. J. Med. 1995; 333:1052-1057)). All patients were untreated at the time of analysis. Protocols were approved by the appropriate Institutional Review Board.
# Cell purification: CLL and T cells were isolated from fresh blood by negative selection (RosetteSep, StemCell Technologies, Vancouver, BC) as described by Gitelson et al. (Gitelson et al., Clin. Cancer Res. 2003; 99:1656-1665).
# Activation of CLL cells: Purified CLL cells (1.5×10^6 cells/mL) were cultured in serum-free AIM-V medium plus 2-mercaptoethanol (2-ME, 5×10^−5 M) (Sigma Chemical Co.) in 6- or 24-well plates (Becton-Dickinson Labware, Franklin Lake, N.J.) for 3-4 days at 37° C. in 5% CO2. CLL cells were activated by adding the Negative Control compound (1 μg/mL), IRM1 (1 μg/mL), IL-2 (5000 U/mL), PDB (100 ng/mL), or bryostatin ([…]), as appropriate.
# Flow cytometry: Cell staining was performed as described by Gitelson et al. (Gitelson et al., Clin. Cancer Res. 2003; 99:1656-1665).
# CLL cells from the indicated number of patients were cultured in IRM1 (1 μg/mL) for 3-4 days, and then assayed for expression of the costimulatory molecules indicated on the x-axis (at an intensity greater than the first decade of log fluorescence) of FIG. 1A. The percentage of cells that expressed each costimulatory molecule and the mean fluorescence intensity (MFI) of expression were measured by flow cytometry. The “fold-increase” was then calculated from the ratio of these measurements to the percentage and MFI of control cells cultured without activating agents. […]
# CLL cells were isolated and cultured alone or with IL-2 (5000 U/mL), IRM1 (1 μg/mL), or both IL-2 and IRM1 for 3-4 days. The expression of CD80, CD86, CD54, and CD83 was then determined by flow cytometry.
# CD80, CD83, CD54, and CD86 expression were then determined by flow cytometry.
# [3] = test system: lymphomatous skin deposits associated with chronic lymphocytic leukemia; experiment: Topical treatment of lymphomatous skin deposits in a CLL patient; type: in vivo, human; settings: topical IRM2; count at beginning 36×10^6 cells/mL
# Excerpt: A person was diagnosed with Rai Stage 0 CLL on the basis of a persistent elevated count of circulating monoclonal CD19^+ CD5^+ IgM^lo lymphocytes, determined by flow cytometry. CD38 was expressed by 45% of circulating CLL cells. The white blood cell counts at the beginning and end of treatment with IRM2 were 36×10^6 cells/mL and 45×10^5 cells/mL, respectively. Other systemic chemotherapy, steroids, or radiation had not been administered previously.
# Additionally, the patient reported having recurrent nodular, erythematous lesions on their hands and arms for approximately eight years. The lesions were usually removed by treatment with liquid nitrogen. At the time they were diagnosed with CLL, they had several such lesions over their upper back (FIG. 8A) and arms. One lesion was biopsied and found to contain a diffuse atypical lymphoid dermal infiltrate consisting of many small, round lymphocytes, without epidermotropism.
# A 5% cream of IRM2 was applied to the affected area three times per week.
# Administration of 5% IRM2 cream was increased to once per day.
# [4] = test system: T cells from CLL patients; experiment: Mixed lymphocyte response: T cell proliferation stimulated by activated, irradiated CLL cells; type: cell-based, human; settings: CLL cells activated 3-4 days, MLR 5-6 days, alamar blue
# Excerpt: Mixed Lymphocyte Responses (MLRs): T cells were isolated from CLL patients and adjusted to 5×10^5 cells/mL in AIM-V medium. Activated CLL cells were washed at least 4 times to remove residual immunomodulators, irradiated (2500 cGy) and suspended at 5×10^5 cells/mL (or lower concentrations) in AIM-V. Responders and stimulators were then mixed in a 1:1 (vol:vol) ratio and cultured in 96-well round bottom plates (Becton Dickinson Labware, Franklin Lake, N.J.) without additional cytokines or serum. Proliferation was measured 4-6 days later using a colorimetric assay (Gitelson et al., Clin Cancer Res. 2003; 99:1656-1665; and Ahmed et al., J. Immunol. Methods. 1994; 170:211-224).
# CLL cells were purified from individual patients and cultured alone or with IL-2, IRM1, IL-2 and IRM1, PDB, PDB and IL-2, PDB and IRM1, or PDB, IL-2, and IRM1. After 3-4 days, these cells were harvested, washed extensively, irradiated (2500 cGy) and used to stimulate allogenic or autologous T cells from CLL patients (obtained at the same time as the CLL cells and rested in culture until added to the Mixed Lymphocytic Response (MLR) assay) after 5-6 days of culture, alamar blue was added and proliferation was measured in an optical density calorimetric microplate reader at wavelengths of 540 (reduced state) and 595 (oxidized state). […]
compound,measurement,setting,value
"CCOCc1nc2c(N)nc3c(c2n1CC(C)(C)O)CCCC3.O [IRM1, 4-amino-2-(ethoxymethyl)-α,α-dimethyl-6,7,8,9-tetrahydro-1H-imidazo[4,5-c]quinoline-1-ethanol hydrate]",killing of CLL cells by autologous T cells in vitro,[1],induced autologous T cells to kill CLL cells
same,dependence of ICOS-L expression on signaling,"[2]; IL-2 5000 U/mL, IRM1 1 μg/mL",relatively independent
same,expression of 4-1BBL and PDL-1,"[2]; IL-2 5000 U/mL, IRM1 1 μg/mL, less than CD80, CD86, CD54",increased somewhat
same,effect on CD80 compared with effect on CD86,[2]; IRM1 1 μg/mL,greater
same,"potency as single agent in increasing CD80 and CD86 expression, relative to IL-2","[2]; IRM1 1 μg/mL vs IL-2 5000 U/mL, 3-4 days",more potent than IL-2
same,"CD80, CD86, and CD54 expression","[2]; IRM1 1 μg/mL, 3-4 days",especially strong effects
same,ICOS-L expression,"[2]; IRM1 1 μg/mL, 3-4 days",little effect
same,"MFI of CD80, CD86, CD54, and CD83","[2]; IRM1 1 μg/mL, 3-4 days",increased the expression of all four
same,"expression of CD83, 4-1BBL, and PDL-1","[2]; IRM1 1 μg/mL, 3-4 days",increased
same,"patients whose CLL cells showed increased expression of CD54, CD80, and CD86","[2]; IRM1 1 μg/mL, 3-4 days, n=31",all patients studied
same,"percentage of CLL cells that expressed CD80 and CD86, and MFI of expression","[2]; single agent, IL-2 5000 U/mL or IRM1 1 μg/mL, 3-4 days",increased
"CC(C)Cn1cnc2c(N)nc3ccccc3c21 [IRM2, 1-(2-methylpropyl)-1H-imidazo[4,5-c]quinolin-4-amine]",white blood cell count at end of treatment,[3],45×10^5 cells/mL
"CC(C)Cn1cnc2c(O)nc3ccccc3c21 [Negative Control, 4-hydroxy-1-isobutyl-1H-imidazo[4,5-c]quinoline, reference compound]",effects on CLL cells,"[2]; 1 μg/mL, 3-4 days culture",did not have measurable effects
"CCCC(=O)O[C@@H]1[C@@H](C)[C@@]2(O)[C@@H](C=C(CO)C[C@]3(O)C(=O)C(C)=C[C@@H]23)[C@@H]2C(C)(C)[C@]12OC(=O)CCC [PDB, Phorbol dibutyrate, reference compound]",ability of activated CLL cells to stimulate T cell proliferation,[4],weak stimulators
same,CD54 and ICOS-L expression,"[2]; PDB alone, 100 ng/mL",not affected greatly
same,expression of 4-1BBL and PDL-1,"[2]; PDB alone, 100 ng/mL",increased
same,CLL cells expressing CD83,"[2]; PDB alone, 100 ng/mL, 3-4 days",~90%
same,number of CD80+ and CD86+ CLL cells,"[2]; PDB alone, 100 ng/mL, CD86+ more than CD80+",increased
poly (I:C) [reference compound],"costimulatory molecule expression (CD80, CD86) by CLL cells","[2]; 100 μg/mL, 48 hours",rarely affected
